Results from US5773646A, “Meta-substituted phenylene derivatives” (G. D. Searle & Co., priority 1997, dated 1998).
Counter-ions that a name gives are not always drawn.

Experiments:
[1] = target: T1, Human vitronectin receptor (αv β3) (Homo sapiens, UniProt P05106+P06756); assay: Vitronectin adhesion assay (solid phase receptor assay, biotinylated vitronectin competition); type: binding; settings: inhibition of 50% of the maximum binding of biotinylated vitronectin; 1 nM labeled ligand, 2 hours, room temperature, highest concentration of test compound 1.0×10^-4 M; read-out: AvB3 IC50
T1 construct: Human vitronectin receptor(αv β3) was purified from human placenta; from tissue; host or cells: human placenta
Method: VITRONECTIN ADHESION ASSAY Human vitronectin receptor(αv β3) was purified from human placenta as previously described [Pytela et al., Methods in Enzymology, 144:475-489 (1987)). Human vitronectin was purified from fresh frozen plasma as previously described [Yatohgo et al., Cell Structure and Function, 13:281-292 (1988)]. Biotinylated human vitronectin was prepared by coupling NHS-biotin from Pierce Chemical Company (Rockford, Ill.) to purified vitronectin as previously described [Charo et al., J. Biol. Chem., 266(3):1415-1421 (1991)]. Assay buffer, OPD substrate tablets, and RIA grade BSA were obtained from Sigma (St. Louis, Mo.). Anti-biotin antibody was obtained from Calbiochem (La Jolla, Calif.). Linbro microtiter plates were obtained from Flow Labs (McLean, Va.). ADP reagent was obtained from Sigma (St. Louis, Mo.). Solid Phase Receptor Assays This assay was essentially the same as previously reported [Niiya et al., Blood, 70:475-483 (1987)]. The purified human vitronectin receptor (αv β3) was diluted from stock solutions to 1.0 μg/mL in Tris-buffered saline containing 1.0 mM Ca^++, Mg^++, and Mn^++, pH 7.4 (TBS^+++). The diluted receptor was immediately transferred to Linbro microtiter plates at 100 μL/well (100 ng receptor/well). The plates were sealed and incubated overnight at 4° C. to allow the receptor to bind to the wells. All remaining steps were at room temperature. The assay plates were emptied and 200 μL of 1% RIA grade BSA in TBS^+++ (TBS^+++ /BSA) were added to block exposed plastic surfaces. Following a 2 hour incubation, the assay plates were washed with TBS^+++ using a 96 well plate washer. Logarithmic serial dilution of the test compound and controls were made starting at a stock concentration of 2 mM and using 2 nM biotinylated vitronectin in TBS^+++ /BSA as the diluent. This premixing of labeled ligand with test (or control) ligand, and subsequent transfer of 50 μL aliquots to the assay plate was carried out with a CETUS Propette robot; the final concentration of the labeled ligand was 1 nM and the highest concentration of test compound was 1.0×10^-4 M. The competition occurred for two hours after which all wells were washed with a plate washer as before. Affinity purified horseradish peroxidase labeled goat antibiotin antibody was diluted 1:3000 in TBS^+++ /BSA and 125 μL were added to each well. After 30 minutes, the plates were washed and incubated with OPD/H2 O2 substrate in 100 mM/L Citrate buffer, pH 5.0. The plate was read with a microtiter plate reader at a wavelength of 450 nm and when the maximum-binding control wells reached an absorbance of about 1.0, the final A450 were recorded for analysis. The data were analyzed using a macro written for use with the EXCEL™ spreadsheet program. The mean, standard deviation, and %CV were determined for duplicate concentrations. The mean A450 values were normalized to the mean of four maximum-binding controls (no competitor added)(B-MAX). The normalized values were subjected to a four parameter curve fit algorithm [Rodbard et al., Int.

[2] = target: T2, Human fibrinogen receptor (αIIb β3) (Homo sapiens, UniProt P05106+P08514); assay: Purified IIb/IIIa receptor assay (solid phase receptor assay, biotinylated vitronectin competition); settings: inhibition of 50% of the maximum binding of biotinylated vitronectin; 1 nM labeled ligand, 2 hours, room temperature, highest concentration of test compound 1.0×10^-4 M
T2 construct: Human fibrinogen receptor (αIIb β3) was purified from outdated platelets; from tissue; host or cells: outdated human platelets
From the text: PURIFIED IIb/IIIa RECEPTOR ASSAY Human fibrinogen receptor (αIIb β3) was purified from outdated platelets. (Pytela, R., Pierschbacher, […]., Suzuki, S., and […] acid adhesion receptors", Methods in Enzymology 144(1987):475-489.) Human vitronectin was purified from fresh frozen plasma as described in Yatohgo, T., Izumi, M., Kashiwagi, H., and Hayashi, M., "Novel purification of vitronectin from human plasma by heparin affinity chromatography," Cell Structure and Function 13(1988):281-292. Biotinylated human vitronectin was prepared by coupling NHS-biotin from Pierce Chemical Company (Rockford, Ill.) to purified vitronectin as previously described. (Charo, […]., Phillips, D. R., Hsu, M. A., Scarborough, R. M., "Inhibition of fibrinogen binding to GP IIb/IIIa by a GP IIIa peptide", J. Biol. Chem. 266(3)(1991):1415-1421.) Assay buffer, OPD substrate tablets, and RIA grade BSA were obtained from Sigma (St. Louis, Mo.). Anti-biotin antibody was obtained from Calbiochem (La Jolla, Calif.). Linbro microtiter plates were obtained from Flow Labs (McLean, Va.). ADP reagent was obtained from Sigma (St. Louis, Mo.). Solid Phase Receptor Assays This assay is essentially the same reported in […]., Bader, R., Byers-Ward, […]., Plow, E. F. and Ruggeri, Z. M., "Increased surface expression of the membrane glycoprotein IIb/IIIa complex induced by platelet activation: Relationships to the binding of fibrinogen and platelet aggregation", Blood 70(1987):475-483. The purified human fibrinogen receptor (αIIb β3) was diluted from stock solutions to 1.0 μg/mL in Tris-buffered saline containing 1.0 mM Ca^++, Mg^++, and Mn^++, pH 7.4 (TBS^+++). The diluted receptor was immediately transferred to Linbro microtiter plates at 100 μL/well (100 ng receptor/well). The plates were sealed and incubated overnight at 4° C. to allow the receptor to bind to the wells. All remaining steps were at room temperature. The assay plates were emptied and 200 μL of 1% RIA grade BSA in TBS^+++ (TBS^+++ /BSA) were added to block exposed plastic surfaces. Following a 2 hour incubation, the assay plates were washed with TBS^+++ using a 96 well plate washer. Logarithmic serial dilution of the test compound and controls were made starting at a stock concentration of 2 mM and using 2 nM biotinylated vitronectin in TBS^+++ /BSA as the diluent. This premixing of labeled ligand with test (or control) ligand, and subsequent transfer of 50 μL aliquots to the assay plate was carried out with a CETUS Propette robot; the final concentration of the labeled ligand was 1 nM and the highest concentration of test compound was 1.0×10^-4 M. The competition occurred for two hours after which all wells were washed with a plate washer as before. Affinity purified horseradish peroxidase labeled goat antibiotin antibody was diluted 1:3000 in TBS^+++ /BSA and 125 μL were added to each well. After 30 minutes, the plates were washed and incubated with […]/H2 O2 substrate in 100 mM/L citrate buffer, pH 5.0. The plate was read with a microtiter plate reader at a wavelength of 450 nm and when the maximum-binding control wells reached an absorbance of about 1.0, the final A450 were recorded for analysis. The data were analyzed using a macro written for use with the EXCELTM spreadsheet program. The mean, standard deviation, and %CV were determined for duplicate concentrations. The mean A450 values were normalized to the mean of four maximum-binding controls (no competitor added)(B-MAX). The normalized values were subjected to a four parameter curve fit algorithm, [Robard et al., Int.

SMILES | IC50 [1] | IC50 [2]
CC(CC(=O)O)c1cccc(CNC(=O)c2cccc(NC(=N)N)c2)c1 (stereo not drawn) [Example 40, 3-[[[[3-[(aminoiminomethyl)amino]phenyl]carbonyl]amino]methyl]-β-methylbenzenepropanoic acid, trifluoroacetate salt] | 0.0116 µM | 2.26 µM
CCOC(=O)CC(CC)c1cccc(CNC(=O)c2cccc(NC(=N)N)c2)c1 (stereo not drawn) [Example 41, ethyl 3-[[[[3-[(aminoiminomethyl)amino]phenyl]carbonyl]amino]methyl)-β-ethylbenzenepropanoate, trifluoroacetate salt] | 11.3 µM | > 100 µM
CC(C)C(CC(=O)O)c1cccc(CNC(=O)c2cccc(NC(=N)N)c2)c1 (stereo not drawn) [Example 43, 3-[[[[3-[(aminoiminomethyl)amino]phenyl]carbonyl]amino]methyl]-β-(1-methylethyl) benzenepropanoic acid, trifluoroacetate salt] | 0.00718 µM | 0.798 µM
COC(=O)Cc1cccc(CNC(=O)c2cccc(NC(=N)N)c2)c1 [Example 47, methyl 3-[[[[3-[(aminoiminomethyl)amino]phenyl]carbonyl]amino]methyl]benzeneacetate, trifluoroacetate salt] | 36.5 µM | > 100 µM
N=C(N)Nc1cccc(NC(=O)Nc2cccc(CCC(=O)O)c2)c1 [Example 51, 3-[[[[3-[(aminoiminomethyl)amino]phenyl]amino]carbonyl]amino]benzenepropanoic acid, trifluoroacetate salt] | 3.09 µM | 10.7 µM
N=C(N)Nc1cccc(C(=O)NCc2cccc(C(CC(=O)O)c3cc(Cl)cc(Cl)c3)c2)c1 (stereo not shown) [Example 54] | 0.0198 µM | 0.145 µM
C[C@H](CC(=O)O)c1cccc(CNC(=O)c2cccc(NC(=N)N)c2)c1 [Example 56, 3-[[[[3-[(aminoiminomethyl)amino]phenyl]carbonyl]amino]methyl]-βR-methylbenzenepropanoic acid, trifluoroacetate salt hydrate] | 0.00688 µM | 1.31 µM

Second part, the molecule after the results:

IC50 [1] | IC50 [2] | SMILES
0.0117 µM | 0.472 µM | CCC(CC(=O)O)c1cccc(CNC(=O)c2cccc(NC(=N)N)c2)c1 (stereo not drawn) [Example 42, 3-([[[3-[(aminoiminomethyl)amino]phenyl]carbonyl]amino]methyl]-β-ethylbenzenepropanoic acid, trifluoroacetate salt]
3.21 µM | 0.094 µM | N=C(N)Nc1cccc(C(=O)NCCc2cccc(CC(=O)O)c2)c1 [Example 44, 3-[2-[[[3-[(aminoiminomethyl)amino]phenyl]carbonyl]amino]ethyl]benzeneacetic acid, monohydrate trifluoroacetate salt]
0.0723 µM | 1.37 µM | CC(=O)NC(Cc1cccc(CNC(=O)c2cccc(NC(=N)N)c2)c1)C(=O)O (stereo not shown) [Example 45, N-acetyl-3-[[[[3-[(aminoiminomethyl)amino]phenyl]carbonyl]amino]methyl)phenylalanine, bis(trifluoroacetate) salt]
2.44 µM | 2.28 µM | N=C(N)Nc1cccc(CC(=O)Nc2cccc(CCC(=O)O)c2)c1 [Example 46, 3-[[[3-[(aminoiminomethyl)amino]phenyl]acetyl]amino]benzenepropanoic acid, trifluoroacetate salt]
1.68 µM | 12.7 µM | N=C(N)Nc1cccc(C(=O)NCc2cccc(CC(=O)O)c2)c1 [Example 49, 3-[[[[3-[(aminoiminomethyl)amino]phenyl]carbonyl]amino]methyl]benzeneacetic acid, trifluoroacetate salt]
> 100 µM | 55.5 µM | N=C(N)Nc1cccc(C(=O)Nc2cccc(CC(=O)O)c2)c1 [Example 50, 3-[[[3-[(aminoiminomethyl)amino]phenyl]carbonyl]amino]benzeneacetic acid, trifluoroacetate salt]
16.6 µM | 39.7 µM | N=C(N)Nc1cccc(NC(=O)Nc2cccc(OCC(=O)O)c2)c1 [Example 52, [3-[[[[3-[(aminoiminomethyl)amino]phenyl]amino]carbonyl]amino]phenoxy]acetic acid, trifluoroacetate salt]
1.67 µM | 2.64 µM | N=C(N)Nc1cccc(NC(=O)NCc2cccc(CCC(=O)O)c2)c1 [Example 53, 3-[[[[[3-[(aminoiminomethyl)amino]phenyl]amino]carbonyl]amino]methyl]benzenepropanoic acid, trifluoroacetate salt]
0.108 µM | 13.4 µM | CNC(=NC#N)Nc1cccc(C(=O)NCc2cccc(C(CC(=O)O)c3ccccc3)c2)c1 (stereo not drawn) [Example 55, 3-[[[[3-[[(cyanoimino)(methylamino)methyl]amino]phenyl]carbonyl]amino]methyl]-β-phenylbenzenepropanoic acid]
0.189 µM | 17.6 µM | C[C@@H](CC(=O)O)c1cccc(CNC(=O)c2cccc(NC(=N)N)c2)c1 [Example 57, 3-[[[[3-[(aminoiminomethyl)amino]phenyl]carbonyl]amino]methyl]-βS-methylbenzenepropanoic acid]
